Data: ChEMBL document CHEMBL5104138, “Discovery of pyridyl urea sulfonamide inhibitors of NaV1.7” (Bioorg Med Chem Lett, 2022)

Legend:
[1] = rat, in vivo, iv, 0.5 mg/kg
Description: Unbound clearance in rat at 0.5 mg/kg, iv

Cytochrome P450 3A4 [2] = target: T1, Cytochrome P450 3A4 (Homo sapiens, UniProt P08684); assay: Time dependent inhibition of CYP3A4 in human liver microsomes using midazolam as substrate preincubated for 30 mins followed by substrate addition; assay type: ADME, Microsome
[3] = Lipophilicity, logD of compound at pH 7.4; assay type: physicochemical; conditions: buffer
[4] = Clearance in rat at 0.5 mg/kg, iv; conditions: in vivo
Cytochrome P450 3A4 [5] = target: T1, Cytochrome P450 3A4; assay: Time dependent inhibition of CYP3A4 in human liver microsomes using midazolam as substrate incubated for 30 mins; assay type: ADME, Microsome
Mus musculus [6] = assay: Antinociceptive activity in mouse model of Histamine-induced itching assessed as reduction in scratching bouts at 30 mg/kg, po relative to control; assay type: functional; set-up: scale not given: the % may be the effect or the level left
[7] = target: T2, Sodium channel protein type 9 subunit alpha (Homo sapiens, UniProt Q15858); assay: Inhibition of human Nav1.7 by PatchXpress assay
Mus musculus [8] = assay: Antinociceptive activity in UV burn-induced thermal hyperalgesia mouse model assessed as reduction in latency time at 30 mg/kg, po relative to control; assay type: functional; set-up: scale not given: the % may be the effect or the level left
[9] = Intrinsic clearance in rat liver microsomes assessed as loss of parent compound incubated for 30 mins; assay type: ADME, Microsome; conditions: read-out: CLH
[10] = target: T2, Sodium channel protein type 9 subunit alpha; assay: Inhibition of human Nav1.7 at 1 uM by PatchXpress assay relative to control
Target sequence in this assay (Q15858 whole entry, looked up): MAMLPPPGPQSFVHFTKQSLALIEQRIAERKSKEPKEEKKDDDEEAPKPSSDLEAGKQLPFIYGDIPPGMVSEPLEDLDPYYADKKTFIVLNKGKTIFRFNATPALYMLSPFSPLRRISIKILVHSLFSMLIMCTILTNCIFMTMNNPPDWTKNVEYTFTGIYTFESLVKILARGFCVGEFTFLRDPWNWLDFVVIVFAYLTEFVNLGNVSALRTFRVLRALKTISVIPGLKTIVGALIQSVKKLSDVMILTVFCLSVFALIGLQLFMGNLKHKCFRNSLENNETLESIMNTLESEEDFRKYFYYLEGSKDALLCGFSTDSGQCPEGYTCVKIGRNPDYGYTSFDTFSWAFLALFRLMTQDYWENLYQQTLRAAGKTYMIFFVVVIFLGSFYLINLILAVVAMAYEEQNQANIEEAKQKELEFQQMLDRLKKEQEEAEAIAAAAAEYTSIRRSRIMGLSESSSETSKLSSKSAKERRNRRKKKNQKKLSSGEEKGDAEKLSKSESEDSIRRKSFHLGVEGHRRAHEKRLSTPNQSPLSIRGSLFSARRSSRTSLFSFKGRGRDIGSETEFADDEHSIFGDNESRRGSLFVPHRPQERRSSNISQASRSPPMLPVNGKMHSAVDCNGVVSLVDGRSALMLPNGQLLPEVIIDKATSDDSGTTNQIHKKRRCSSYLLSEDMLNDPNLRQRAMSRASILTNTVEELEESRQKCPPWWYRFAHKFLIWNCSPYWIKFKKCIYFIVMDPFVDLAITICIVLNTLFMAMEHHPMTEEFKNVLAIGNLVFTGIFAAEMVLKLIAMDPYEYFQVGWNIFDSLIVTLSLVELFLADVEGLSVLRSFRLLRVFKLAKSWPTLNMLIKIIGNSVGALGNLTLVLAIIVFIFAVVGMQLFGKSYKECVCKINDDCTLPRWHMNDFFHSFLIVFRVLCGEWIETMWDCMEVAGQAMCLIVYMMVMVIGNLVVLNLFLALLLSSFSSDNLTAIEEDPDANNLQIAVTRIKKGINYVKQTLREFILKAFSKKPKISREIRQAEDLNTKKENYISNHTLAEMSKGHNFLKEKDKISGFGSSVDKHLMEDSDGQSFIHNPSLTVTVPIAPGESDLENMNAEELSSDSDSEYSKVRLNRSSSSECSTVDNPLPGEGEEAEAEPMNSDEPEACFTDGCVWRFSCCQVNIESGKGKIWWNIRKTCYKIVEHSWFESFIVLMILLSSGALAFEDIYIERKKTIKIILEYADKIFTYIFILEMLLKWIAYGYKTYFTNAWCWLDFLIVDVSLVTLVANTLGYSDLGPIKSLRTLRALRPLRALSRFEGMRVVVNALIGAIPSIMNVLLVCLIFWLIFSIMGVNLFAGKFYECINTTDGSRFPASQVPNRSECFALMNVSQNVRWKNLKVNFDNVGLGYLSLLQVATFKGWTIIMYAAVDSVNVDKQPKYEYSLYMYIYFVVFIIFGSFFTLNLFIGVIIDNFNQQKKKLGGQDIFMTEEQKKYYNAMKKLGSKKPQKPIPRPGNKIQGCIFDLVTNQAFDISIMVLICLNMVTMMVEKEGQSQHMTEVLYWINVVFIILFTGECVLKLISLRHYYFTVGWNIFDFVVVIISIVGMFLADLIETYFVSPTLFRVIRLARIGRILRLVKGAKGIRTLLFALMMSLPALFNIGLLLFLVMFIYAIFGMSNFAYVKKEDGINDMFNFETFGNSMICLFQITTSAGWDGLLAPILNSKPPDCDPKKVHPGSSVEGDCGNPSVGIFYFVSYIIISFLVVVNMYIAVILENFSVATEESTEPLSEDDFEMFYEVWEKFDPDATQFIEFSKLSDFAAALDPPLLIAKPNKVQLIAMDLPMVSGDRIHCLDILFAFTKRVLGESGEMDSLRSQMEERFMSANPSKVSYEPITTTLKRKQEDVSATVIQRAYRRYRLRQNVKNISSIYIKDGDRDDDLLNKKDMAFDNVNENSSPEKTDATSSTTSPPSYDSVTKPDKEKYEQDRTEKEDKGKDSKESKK

T1 sequence (P08684 whole entry): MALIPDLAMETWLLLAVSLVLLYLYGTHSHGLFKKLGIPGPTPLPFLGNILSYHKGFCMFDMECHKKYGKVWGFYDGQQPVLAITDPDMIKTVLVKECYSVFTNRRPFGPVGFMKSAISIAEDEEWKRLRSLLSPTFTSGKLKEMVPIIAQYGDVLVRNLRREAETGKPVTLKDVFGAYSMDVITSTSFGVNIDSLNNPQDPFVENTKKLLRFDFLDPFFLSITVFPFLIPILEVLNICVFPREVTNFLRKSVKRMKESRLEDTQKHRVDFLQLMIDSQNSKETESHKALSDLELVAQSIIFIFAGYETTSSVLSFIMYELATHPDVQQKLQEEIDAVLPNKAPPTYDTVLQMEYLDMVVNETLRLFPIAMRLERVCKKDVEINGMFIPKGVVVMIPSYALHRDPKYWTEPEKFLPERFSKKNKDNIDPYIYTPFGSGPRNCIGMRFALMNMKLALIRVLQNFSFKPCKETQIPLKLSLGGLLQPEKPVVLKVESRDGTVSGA

CNC(=O)N(c1ccc(S(=O)(=O)Nc2ncccn2)cn1)c1cc(F)c(-c2ccc(F)c(C(F)(F)F)c2)cc1OC
CL free [1]: 817 mL/min/kg
IC50 (Cytochrome P450 3A4 [2]): > 50 µM
logD [3]: 1.2
clearance [4]: 2.5 mL/min/kg
IC50 (Cytochrome P450 3A4 [5]): > 50 µM

CN(C)CCOC(c1ccccc1)c1ccccc1 [DIPHENHYDRAMINE]
Activity (Mus musculus [6]): 73%

CNC(=O)N(c1ccc(S(=O)(=O)Nc2ccon2)cn1)c1cc(Cl)c(-c2cc(F)c(F)c(F)c2)cc1OC
CL free [1]: 4770 mL/min/kg
IC50 (Cytochrome P450 3A4 [2]): > 50 µM
logD [3]: 0.7
clearance [4]: 33.3 mL/min/kg
IC50 (Cytochrome P450 3A4 [5]): > 50 µM

COc1cc(-c2ccc(Cl)c(C)c2)ccc1N(C(C)=O)c1ccc(S(=O)(=O)Nc2ccon2)cn1
IC50 [7]: 2.91 µM

CNC(=O)N(c1ccc(S(=O)(=O)Nc2ncccn2)cn1)c1cc(F)c(-c2cccc(C(F)(F)F)c2)cc1OC
CL free [1]: 267 mL/min/kg
IC50 (Cytochrome P450 3A4 [2]): 9 µM
logD [3]: 1
IC50 [7]: 0.13 µM
clearance [4]: 0.5 mL/min/kg
IC50 (Cytochrome P450 3A4 [5]): > 50 µM

CNC(=O)N(c1ccc(S(=O)(=O)Nc2ccon2)cn1)c1cc(F)c(-c2ccc(F)c(OC(F)(F)F)c2)cc1OC
CL free [1]: 7070 mL/min/kg
IC50 (Cytochrome P450 3A4 [2]): > 50 µM
clearance [4]: 48.3 mL/min/kg
IC50 (Cytochrome P450 3A4 [5]): > 50 µM

COc1ccc2cc([C@H](C)C(=O)O)ccc2c1 [NAPROXEN]
Activity (Mus musculus [8]): 87%

COc1cc(-c2ccc(Cl)c(C)c2)ccc1-n1c(=O)ccc2cc(S(=O)(=O)Nc3ccon3)ccc21
CL free [1]: 2200 mL/min/kg
IC50 (Cytochrome P450 3A4 [2]): > 50 µM
microsomal CLint [9]: 28 µL/min/mg
logD [3]: 2.5
IC50 [7]: 5 µM
IC50 ([7]; record 2): 0.01 µM
clearance [4]: 13 mL/min/kg
IC50 (Cytochrome P450 3A4 [5]): 32 µM

CNC(=O)N(c1ccc(S(=O)(=O)Nc2ncccn2)cn1)c1cc(Cl)c(-c2ccc(F)c(OC(F)(F)F)c2)cc1OC
IC50 (Cytochrome P450 3A4 [2]): > 50 µM
logD [3]: 1.6
IC50 (Cytochrome P450 3A4 [5]): 11 µM

CNC(=O)C(c1ccc(S(=O)(=O)Nc2ccon2)cn1)c1ccc(-c2ccc(Cl)c(C)c2)cc1OC (configuration not stated)
inhibition [10]: 4.9%

CNC(=O)N(c1ccc(S(=O)(=O)Nc2ccon2)cn1)c1cc(Cl)c(-c2ccc(F)c(OCC(F)(F)F)c2)cc1OC
IC50 (Cytochrome P450 3A4 [2]): > 50 µM
logD [3]: 0.9
IC50 [7]: 0.023 µM
clearance [4]: 91.7 mL/min/kg
IC50 (Cytochrome P450 3A4 [5]): > 50 µM

CNC(=O)N(c1ccc(S(=O)(=O)Nc2ccon2)cn1)c1cc(Cl)c(-c2cccc(OCC(F)(F)F)c2)cc1OC
IC50 (Cytochrome P450 3A4 [2]): > 50 µM
IC50 (Cytochrome P450 3A4 [5]): 35 µM
